Data on 13 compounds can be found in patent US12486267B2, “Imidazo[1,2-A]pyridine and [1,2,4]triazolo[1,5-A]pyridine derivatives as TLR9 inhibitors for the treatment of fibrosis” (BRISTOL-MYERS SQUIBB COMPANY, priority 2020, dated 2025).

Common to all, as to type: cell-based
For experiment [1], the target named is T1, human TLR8 (Homo sapiens, UniProt Q9NR97).
T1 sequence (Q9NR97 27-1041): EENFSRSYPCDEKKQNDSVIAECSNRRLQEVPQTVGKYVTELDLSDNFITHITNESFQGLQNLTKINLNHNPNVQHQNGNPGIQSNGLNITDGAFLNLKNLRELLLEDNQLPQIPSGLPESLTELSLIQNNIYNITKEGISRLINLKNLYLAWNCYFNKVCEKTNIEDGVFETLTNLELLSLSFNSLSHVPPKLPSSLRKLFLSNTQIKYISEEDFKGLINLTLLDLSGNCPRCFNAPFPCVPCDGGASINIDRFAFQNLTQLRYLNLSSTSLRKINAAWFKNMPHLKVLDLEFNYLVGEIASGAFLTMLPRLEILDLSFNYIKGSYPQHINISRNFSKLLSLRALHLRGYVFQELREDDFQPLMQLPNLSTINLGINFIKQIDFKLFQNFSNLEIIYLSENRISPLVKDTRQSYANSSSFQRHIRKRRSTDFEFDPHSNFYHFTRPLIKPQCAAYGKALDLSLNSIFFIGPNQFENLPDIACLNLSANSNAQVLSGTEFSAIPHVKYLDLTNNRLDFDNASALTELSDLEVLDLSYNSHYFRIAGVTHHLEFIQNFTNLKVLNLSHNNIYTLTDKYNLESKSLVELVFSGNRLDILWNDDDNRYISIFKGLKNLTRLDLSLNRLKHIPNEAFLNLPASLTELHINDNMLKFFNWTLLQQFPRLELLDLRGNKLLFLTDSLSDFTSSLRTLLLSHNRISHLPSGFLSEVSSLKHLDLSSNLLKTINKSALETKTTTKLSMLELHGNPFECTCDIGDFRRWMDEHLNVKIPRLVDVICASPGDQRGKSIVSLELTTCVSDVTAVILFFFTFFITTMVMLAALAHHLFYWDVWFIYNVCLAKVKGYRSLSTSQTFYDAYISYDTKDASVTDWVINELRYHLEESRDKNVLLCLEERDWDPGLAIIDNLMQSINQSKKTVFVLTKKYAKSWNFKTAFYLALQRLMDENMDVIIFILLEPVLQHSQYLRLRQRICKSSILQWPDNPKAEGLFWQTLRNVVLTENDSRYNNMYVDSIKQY
The experiment can be described thus: TLR8 inhibition reporter assay (HEK-Blue cells, SEAP reporter). Particulars: HEK-Blue cells overexpressing human TLR8; stimulated with R848 15.9 μM; 22 hour incubation; SEAP readout. The procedure, abridged: (§1)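 HEK-Blue cells with NF-κB/AP-1-driven SEAP pre-treated 30 min with compound (0.05 nM–50 μM), then stimulated with gardiquimod 7.5 μM (TLR7), R848 15.9 μM (TLR8) or ODN2006 5 nM (TLR9). SEAP detected after 22 h at 37 °C; percent inhibition relative to agonist-plus-DMSO and known-inhibitor wells.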

In experiment [2] the target is T2, human TLR9 (Homo sapiens, UniProt Q9NR96).
T2 sequence (Q9NR96 26-1032): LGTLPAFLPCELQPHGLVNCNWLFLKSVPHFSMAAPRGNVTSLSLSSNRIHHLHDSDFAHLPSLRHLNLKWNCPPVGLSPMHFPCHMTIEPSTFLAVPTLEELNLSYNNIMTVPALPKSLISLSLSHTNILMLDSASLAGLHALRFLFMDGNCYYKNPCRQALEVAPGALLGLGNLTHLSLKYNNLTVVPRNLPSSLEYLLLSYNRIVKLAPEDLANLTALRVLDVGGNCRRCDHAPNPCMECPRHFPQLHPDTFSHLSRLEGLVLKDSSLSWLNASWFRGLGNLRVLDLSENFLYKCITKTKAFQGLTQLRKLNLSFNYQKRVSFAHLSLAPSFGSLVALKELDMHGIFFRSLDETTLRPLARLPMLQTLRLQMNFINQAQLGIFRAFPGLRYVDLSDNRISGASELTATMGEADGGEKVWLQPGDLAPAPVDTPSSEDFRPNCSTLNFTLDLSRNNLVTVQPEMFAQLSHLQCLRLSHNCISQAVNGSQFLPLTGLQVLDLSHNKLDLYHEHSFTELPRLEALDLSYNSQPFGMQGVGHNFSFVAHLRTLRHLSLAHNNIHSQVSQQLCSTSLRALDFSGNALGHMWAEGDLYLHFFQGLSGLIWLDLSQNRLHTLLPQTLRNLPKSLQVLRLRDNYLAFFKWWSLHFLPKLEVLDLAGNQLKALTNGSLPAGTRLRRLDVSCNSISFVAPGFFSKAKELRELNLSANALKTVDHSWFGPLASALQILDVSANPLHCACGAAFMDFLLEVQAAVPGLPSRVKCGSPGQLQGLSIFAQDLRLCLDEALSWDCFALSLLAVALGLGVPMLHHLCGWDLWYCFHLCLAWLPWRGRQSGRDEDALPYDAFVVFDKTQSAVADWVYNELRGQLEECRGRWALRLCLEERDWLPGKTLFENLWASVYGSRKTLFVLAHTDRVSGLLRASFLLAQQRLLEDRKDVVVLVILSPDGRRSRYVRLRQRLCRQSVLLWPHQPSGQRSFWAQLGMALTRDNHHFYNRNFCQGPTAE
In words: TLR9 inhibition reporter assay (HEK-Blue cells, SEAP reporter). Particulars: HEK-Blue cells overexpressing human TLR9; stimulated with ODN2006 5 nM; 22 hour incubation; SEAP readout. The procedure, abridged: as §1

Experiment [3] addresses T3, human TLR7 (Homo sapiens, UniProt Q9NYK1).
T3 sequence (Q9NYK1 27-1049): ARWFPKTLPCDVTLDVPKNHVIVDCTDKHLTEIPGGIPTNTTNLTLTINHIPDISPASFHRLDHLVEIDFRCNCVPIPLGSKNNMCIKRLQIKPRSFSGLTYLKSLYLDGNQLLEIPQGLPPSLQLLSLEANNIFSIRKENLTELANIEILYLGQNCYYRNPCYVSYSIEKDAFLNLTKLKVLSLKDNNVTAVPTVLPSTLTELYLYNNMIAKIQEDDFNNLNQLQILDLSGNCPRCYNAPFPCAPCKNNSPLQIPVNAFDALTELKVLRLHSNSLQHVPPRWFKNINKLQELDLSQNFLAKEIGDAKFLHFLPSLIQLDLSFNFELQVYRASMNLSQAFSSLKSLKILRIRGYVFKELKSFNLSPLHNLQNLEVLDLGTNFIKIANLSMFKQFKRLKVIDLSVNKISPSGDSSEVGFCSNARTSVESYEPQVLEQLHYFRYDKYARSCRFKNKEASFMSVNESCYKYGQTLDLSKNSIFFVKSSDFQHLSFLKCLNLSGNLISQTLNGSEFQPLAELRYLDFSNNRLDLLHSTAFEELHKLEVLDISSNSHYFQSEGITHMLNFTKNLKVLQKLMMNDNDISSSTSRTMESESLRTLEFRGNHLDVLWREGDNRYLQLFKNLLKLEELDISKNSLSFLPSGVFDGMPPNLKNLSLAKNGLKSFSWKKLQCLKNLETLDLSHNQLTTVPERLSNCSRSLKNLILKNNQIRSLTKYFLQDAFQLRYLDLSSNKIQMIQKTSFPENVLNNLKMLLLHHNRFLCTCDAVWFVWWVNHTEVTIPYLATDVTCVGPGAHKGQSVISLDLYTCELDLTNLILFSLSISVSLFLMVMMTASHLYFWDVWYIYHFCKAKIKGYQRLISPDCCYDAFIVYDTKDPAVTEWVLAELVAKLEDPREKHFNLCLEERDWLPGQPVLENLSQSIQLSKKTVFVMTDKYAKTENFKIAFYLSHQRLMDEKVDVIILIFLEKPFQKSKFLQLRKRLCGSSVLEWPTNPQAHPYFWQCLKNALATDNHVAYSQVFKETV
The experiment can be described thus: TLR7 inhibition reporter assay (HEK-Blue cells, SEAP reporter). Particulars: HEK-Blue cells overexpressing human TLR7; stimulated with gardiquimod 7.5 μM; 22 hour incubation; SEAP readout. The procedure, abridged:
as §1

Each structure is given as a SMILES string. Bounds are passed on as bounds.

For the compound `CS(=O)(=O)c1ccc(-c2cn3cc(C4CCN(C5CCCN(CC6CC6)CC5)CC4)cc(F)c3n2)cc1` (single isomer, unassigned) [Example 127, 6-(1-(1-(cyclopropylmethyl)azepan-4-yl)piperidin-4-yl)-8-fluoro-2-(4-(methylsulfonyl)phenyl)imidazo[1,2-a]pyridine], the IC50 in experiment [1] was found to be 36 µM; in experiment [2], 0.0097 µM; in experiment [3] it was 1.6 µM.
Regarding `CC(C)N1CCC(N2CCC(c3ccc4nc(-c5ccc(S(C)(=O)=O)cc5)cn4c3F)CC2)CC1` [Example 73, 5-fluoro-6-(1′-isopropyl-[1,4′-bipiperidin]-4-yl)-2-(4-(methylsulfonyl)phenyl) imidazo[1,2-a]pyridine], the IC50 was 23 µM in experiment [1], 0.106 µM in experiment [2] and over 50 µM in experiment [3].
Turning to `COc1ccc(-c2cn3c(n2)CCC(C2CCN(C4CC5(C4)CN(C4CCC4)C5)CC2)C3)cc1OC` (single isomer, unassigned) [Example 49, 6-(1-(2-cyclobutyl-2-azaspiro[3.3]heptan-6-yl)piperidin-4-yl)-2-(3,4-dimethoxyphenyl)-5,6,7,8-tetrahydroimidazo[1,2-a]pyridine], the results for the IC50 in experiment [1], in experiment [2] and in experiment [3] were over 50 µM, 0.022 µM and 1.8 µM, respectively.
With `CS(=O)(=O)c1ccc(-c2cn3c(n2)CC[C@H](C2CCN(C4CC5CCC(C4)N5CC4CC4)CC2)C3)cc1` (single isomer, unassigned) [Example 139], the IC50 in experiment [1] is over 50 µM; in experiment [2], 0.033 µM; in experiment [3], 10.7 µM.
As for `CS(=O)(=O)c1ccc(-c2cn3c(n2)CC[C@@H](C2CCN(C4CC5CCC(C4)N5CC4CC4)CC2)C3)cc1` (single isomer, unassigned) [Example 141], the IC50 is over 50 µM in experiment [1], 0.023 µM in experiment [2] and 15.8 µM in experiment [3].
For `COc1ccc(-c2cn3cc(C4CCN(C5CCN(CC(C)C)CC5)CC4)ccc3n2)cc1OC` [Example 12, 2-(3,4-dimethoxyphenyl)-6-(1′-isobutyl-[1,4′-bipiperidin]-4-yl)imidazo[1,2-a]pyridine] the same measures were over 50 µM, 0.122 µM and 2.7 µM.
Consider `COc1ccc(-c2cn3c(n2)CC[C@@H](C2CCN(C4CC5CCC(C4)N5C(C)C)CC2)C3)cc1OC` (single isomer, unassigned) [Example 137], for which the figures for the IC50 in experiment [1], in experiment [2] and in experiment [3] were over 25 µM, 0.046 µM and 3 µM, respectively.
With `CS(=O)(=O)c1ccc(-c2cn3c(n2)CC[C@@H](C2CCN(C4CC5CCC(C4)N5CC4CC4)CC2)C3)cc1` (single isomer, unassigned) [Example 140], the IC50 in experiment [1] was over 50 µM; in experiment [2], 0.352 µM; in experiment [3], over 50 µM.
Regarding `COc1ccc(-c2cn3c(n2)CC(C2CCN(C4CCN(CC(C)C)CC4)CC2)CC3)cc1OC` (racemic) [Example 59, 2-(3,4-dimethoxyphenyl)-7-(1′-isobutyl-[1,4′-bipiperidin]-4-yl)-5,6,7,8-tetrahydroimidazo[1,2-a]pyridine], the IC50 is over 50 µM in experiment [1], 0.205 µM in experiment [2] and 7.7 µM in experiment [3].
Regarding `CS(=O)(=O)c1ccc(-c2cn3cc(C4CCN(C5CC6CCC(C5)N6C5CCC5)CC4)cc(F)c3n2)cc1` (single isomer, unassigned) [Example 118, 6-(1-(8-cyclobutyl-8-azabicyclo[3.2.1]octan-3-yl)piperidin-4-yl)-8-fluoro-2-(4-(methylsulfonyl)phenyl)imidazo[1,2-a]pyridine], the IC50 in experiment [1] amounted to 17.1 µM; in experiment [2], 0.021 µM; in experiment [3] it was 1.1 µM.
For the compound `Cc1cc(C2CCN(C3CCN(CC(C)C)CC3)CC2)cn2cc(-c3ccc(S(C)(=O)=O)cc3)nc12` [Example 9, 6-(1′-isobutyl-[1,4′-bipiperidin]-4-yl)-8-methyl-2-(4-(methylsulfonyl)phenyl) imidazo[1,2-a]pyridine], the figures for the IC50 in experiment [1], in experiment [2] and in experiment [3] were over 50 µM, 0.042 µM and 3.3 µM, respectively.
On to `COc1ccc(-c2cn3c(n2)CCC(C2CCN(C4CCN(C5CC5)CC4)CC2)C3)cc1OC` (single isomer, unassigned) [Example 37, 6-(1′-cyclopropyl-[1,4′-bipiperidin]-4-yl)-2-(3,4-dimethoxyphenyl)-5,6,7,8-tetrahydroimidazo[1,2-a]pyridine], for which the figures for the IC50 in experiment [1], in experiment [2] and in experiment [3] were over 50 µM, 0.062 µM and 4 µM, respectively.
On to `COc1ccc(-c2cn3cc(-c4ccc(N5CCN(CC6CC6)CC5)cc4)cc(C)c3n2)cc1OC` [Example 95, 6-(4-(4-(cyclopropylmethyl)piperazin-1-yl)phenyl)-2-(3,4-dimethoxyphenyl)-8-methylimidazo[1,2-a]pyridine], for which the IC50 in experiment [1] is over 50 µM; in experiment [2] it was 0.531 µM; in experiment [3], 1 µM.
